Results as given in ChEMBL document CHEMBL1201862, “PubChem BioAssay data set” (2004).
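Dose response: 5 concentrations. Exposure: 48 h. Format: 96-well plates. Endpoint: linear interpolation; highest concentration if not reached. The concentration for 50% growth inhibition is given as GI50.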 Active and inactive are the calls of the source. Rule as the data show it: active = GI50 up to about 1.1 µM and inactive = higher.

Assays:
Experiment in all cases: DTP human tumour cell line panel, 48 h
SF-295 = test system: SF-295
LOX IMVI = test system: LOX IMVI
NCI-H226 = test system: NCI-H226
SNB-75 = test system: SNB-75
SK-MEL-2 = test system: SK-MEL-2
786-0 = test system: 786-0
EKVX = test system: EKVX
HOP-62 = test system: HOP-62
ACHN = test system: ACHN
OVCAR-4 = test system: OVCAR-4
A549 = test system: A549
CAKI-1 = test system: CAKI-1
M14 = test system: M14
MDA-MB-435 = test system: MDA-MB-435
DU-145 = test system: DU-145
Hs-578T = test system: Hs-578T
UACC-257 = test system: UACC-257
MCF7 = test system: MCF7
MDA-MB-231 = test system: MDA-MB-231

Measured: GI50

CCCN1C(=O)C/C(=C\C(C)=O)Nc2ccccc21
inactive: SF-295 > 100 µM | LOX IMVI > 100 µM | NCI-H226 37.2 µM | SNB-75 > 100 µM | SK-MEL-2 > 100 µM | 786-0 > 100 µM | EKVX > 100 µM | HOP-62 > 100 µM | ACHN > 100 µM | OVCAR-4 > 100 µM | A549 > 100 µM | CAKI-1 > 100 µM | M14 > 100 µM

O=C(O)CCCC#CCCCC(=O)O
inactive: SF-295 > 100 µM | LOX IMVI > 100 µM | SNB-75 43.5 µM | MDA-MB-435 > 100 µM | SK-MEL-2 > 100 µM | 786-0 > 100 µM | DU-145 > 100 µM | Hs-578T > 100 µM | UACC-257 > 100 µM | EKVX > 100 µM | HOP-62 > 100 µM | ACHN > 100 µM | OVCAR-4 > 100 µM | MCF7 > 100 µM | A549 > 100 µM | CAKI-1 > 100 µM | M14 > 100 µM

C[C@@H](CO)C1=CC(C#C[Si](C)(C)C)N(C(=O)Oc2ccccc2)c2ccccc21 (stereo partly specified)
inactive: SF-295 12.2 µM | LOX IMVI 17.6 µM | NCI-H226 20 µM | SNB-75 10.1 µM | MDA-MB-231 17.7 µM | MDA-MB-435 3.45 µM | SK-MEL-2 16.9 µM | 786-0 17.2 µM | DU-145 21.6 µM | Hs-578T 25.1 µM | UACC-257 16.8 µM | EKVX 23.3 µM | HOP-62 15 µM | ACHN 18.6 µM | OVCAR-4 12.6 µM | A549 20.9 µM | CAKI-1 24 µM | M14 16.3 µM

COc1ccccc1/C=C(\C#N)c1ccccc1
inactive: SF-295 52.7 µM | LOX IMVI 46.9 µM | NCI-H226 3.13 µM | SNB-75 25.9 µM | SK-MEL-2 27.2 µM | 786-0 20 µM | UACC-257 31.1 µM | HOP-62 46.5 µM | ACHN 59.4 µM | OVCAR-4 30.2 µM | A549 37 µM | CAKI-1 16.6 µM | M14 32.8 µM

COC1=CC(=O)c2c(cc3c(c2O)-c2c(OC)cc4cc5c(c(O)c4c2OC(=O)CC(C)(O)C3)C(=O)CC(C)(O)C5)C1=O (stereo unspecified)
inactive: SF-295 1.44 µM | LOX IMVI 1.22 µM | NCI-H226 1.84 µM | SNB-75 1.29 µM | SK-MEL-2 1.28 µM | 786-0 2.65 µM | UACC-257 1.76 µM | EKVX 2.27 µM | HOP-62 1.21 µM | ACHN 2.64 µM | OVCAR-4 3.15 µM | A549 2.68 µM | CAKI-1 2.23 µM | M14 1.25 µM

Cc1cc(=O)cc2sc3cc(Cl)ccc3nc1-2
inactive: SF-295 6.5 µM | LOX IMVI 11.9 µM | NCI-H226 25.4 µM | SNB-75 3.24 µM | SK-MEL-2 7.01 µM | 786-0 12 µM | UACC-257 16.9 µM | EKVX 4.72 µM | HOP-62 15.6 µM | ACHN 6.04 µM | OVCAR-4 22.2 µM | A549 4.49 µM | CAKI-1 19.7 µM | M14 4.4 µM

Cc1ccc(C(=O)/C=C/c2cccc([N+](=O)[O-])c2)cc1
inactive: SF-295 55.5 µM | LOX IMVI 66.4 µM | NCI-H226 > 58.7 µM | SNB-75 > 47.3 µM | SK-MEL-2 > 100 µM | 786-0 28.4 µM | UACC-257 > 100 µM | EKVX > 100 µM | HOP-62 > 100 µM | ACHN > 100 µM | OVCAR-4 46.9 µM | A549 > 100 µM | CAKI-1 > 92 µM | M14 98.6 µM

CC(O)C(CO)NC(=O)C1CSSCC(NC(=O)C(N)Cc2ccccc2)C(=O)NC(Cc2ccccc2)C(=O)NC(Cc2c[nH]c3ccccc23)C(=O)NC(CCCCN)C(=O)NC(C(C)O)C(=O)N1 (stereo unspecified)
inactive: SF-295 > 100 µM | LOX IMVI > 100 µM | NCI-H226 > 100 µM | SNB-75 > 100 µM | MDA-MB-231 > 100 µM | MDA-MB-435 > 100 µM | 786-0 > 100 µM | DU-145 > 100 µM | UACC-257 > 100 µM | EKVX > 100 µM | HOP-62 > 100 µM | ACHN > 100 µM | OVCAR-4 > 100 µM | MCF7 > 100 µM | A549 > 100 µM | CAKI-1 > 100 µM | M14 > 100 µM

CCOC(=O)C(=Cc1cccnc1C)C(=O)OCC
inactive: SF-295 10.6 µM | LOX IMVI 3.71 µM | NCI-H226 31.8 µM | SNB-75 3.13 µM | SK-MEL-2 4.08 µM | 786-0 8.51 µM | UACC-257 8.09 µM | EKVX 16.4 µM | HOP-62 18.8 µM | ACHN 11.9 µM | OVCAR-4 11 µM | A549 15.6 µM | CAKI-1 6.21 µM | M14 11.2 µM

COC(=O)C(=O)C(C#N)c1c(Cl)cccc1Cl (stereo unspecified)
inactive: SF-295 > 100 µM | LOX IMVI > 100 µM | NCI-H226 > 100 µM | SNB-75 > 100 µM | SK-MEL-2 > 100 µM | 786-0 > 100 µM | UACC-257 > 100 µM | EKVX > 100 µM | HOP-62 > 100 µM | ACHN > 100 µM | OVCAR-4 > 100 µM | A549 > 100 µM | CAKI-1 > 100 µM | M14 > 100 µM

C[n+]1c2ccccc2c(/C=N\NS(=O)(=O)c2ccc(O)c(C(=O)O)c2)c2ccccc21
inactive: SF-295 > 100 µM | LOX IMVI 12.9 µM | NCI-H226 26.1 µM | SNB-75 34.2 µM | SK-MEL-2 63.5 µM | 786-0 34.4 µM | UACC-257 > 10 µM | EKVX 78.9 µM | HOP-62 > 100 µM | ACHN 80.2 µM | OVCAR-4 > 100 µM | A549 23.4 µM | CAKI-1 28.2 µM | M14 64.1 µM

O=C(CC1(O)C(=O)Nc2c(Cl)cc(Cl)cc21)c1ccc([N+](=O)[O-])cc1 (stereo unspecified)
inactive: SF-295 > 66.1 µM | LOX IMVI > 100 µM | NCI-H226 30.6 µM | SNB-75 29.2 µM | SK-MEL-2 > 56.4 µM | 786-0 85.3 µM | UACC-257 33.3 µM | EKVX 43.4 µM | HOP-62 > 100 µM | ACHN 38.6 µM | OVCAR-4 17.5 µM | A549 > 79.8 µM | CAKI-1 > 53.8 µM | M14 > 41.6 µM

O=c1c(C(c2ccco2)c2c(O)oc3ccccc3c2=O)c(O)oc2ccccc12
inactive: LOX IMVI 28.2 µM | NCI-H226 64.9 µM | SNB-75 28.1 µM | MDA-MB-231 20 µM | MDA-MB-435 31.6 µM | SK-MEL-2 51.6 µM | 786-0 25.1 µM | DU-145 > 100 µM | Hs-578T 51.1 µM | UACC-257 23.4 µM | EKVX 47 µM | HOP-62 > 100 µM | ACHN 27.1 µM | OVCAR-4 70.8 µM | CAKI-1 21.8 µM
